# Experimental data reported in patent US9133262B2, “Somatostatin antagonists” (Ipsen Pharma S.A.S., priority 1996, dated 2015).
# Positions of bridges follow the written chain, without caps; N, C: chain ends. Non-standard residues stand in square brackets, D forms with d. Residues, ends and D or L forms follow the SMILES beside them. Bip = N[C@@H](Cc1ccc(-c2ccccc2)cc1)C(=O)O; Tyr(3-I) = N[C@@H](Cc1ccc(O)c(I)c1)C(=O)O; dDip = N[C@@H](C(=O)O)C(c1ccccc1)c1ccccc1; dPhe(4-Cl) = N[C@H](Cc1ccc(Cl)cc1)C(=O)O; Dip = N[C@H](C(=O)O)C(c1ccccc1)c1ccccc1; Phe(4-F) = N[C@@H](Cc1ccc(F)cc1)C(=O)O; 2Nal = N[C@@H](Cc1ccc2ccccc2c1)C(=O)O; 3Pal = N[C@@H](Cc1cccnc1)C(=O)O; Tle = CC(C)(C)[C@H](N)C(=O)O; Nle = CCCC[C@H](N)C(=O)O
# Test system: rat pituitary cells
# Assay type: cell-based
# Settings: 3 h
# In short: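 GH radioimmunoassay of medium after 3 h, 37° C incubation of cultured rat anterior pituitary cells with antagonist (6 doses) against 1 nM somatostatin in presence of 1 nM GRF(1-29)NH2; medium 199, 1% BSA, triplicates. IC50 derived by curve fit with top fixed at GRF-only control response.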
row,IC50,SMILES
1,420 nM,"C[C@@H]1NC(=O)[C@H](CCCCN)NC(=O)[C@@H](Cc2c[nH]c3ccccc23)NC(=O)[C@H](Cc2cccnc2)NC(=O)[C@H](NC(=O)[C@@H](N)Cc2ccc3ccccc3c2)CSSC[C@@H](C(=O)N[C@@H](Cc2ccc3ccccc3c2)C(N)=O)NC1=O [Analog No. 34, H2-β-Nal-D-Cys-Pal-D-Trp-Lys-Ala-Cys-β-Nal-NH2] (H-[2Nal][dC][3Pal][dW]KAC[2Nal]-NH2; disulfide 2-7)"
2,20 nM,"CC(C)[C@@H]1NC(=O)[C@H](CCCCN)NC(=O)[C@@H](Cc2c[nH]c3ccccc23)NC(=O)[C@H](Cc2ccc(O)c(I)c2)NC(=O)[C@H](NC(=O)[C@@H](N)Cc2ccc3ccccc3c2)CSSC[C@@H](C(=O)N[C@@H](Cc2ccc3ccccc3c2)C(N)=O)NC1=O [Analog No. 46, H2-β-Nal-D-Cys-3-I-Tyr-D-Trp-Lys-Val-Cys-β-Nal-NH2] (H-[2Nal][dC][Tyr(3-I)][dW]KVC[2Nal]-NH2; disulfide 2-7)"
3,380 nM,"CC(C)[C@@H]1NC(=O)[C@H](CCCCN)NC(=O)[C@@H](Cc2c[nH]c3ccccc23)NC(=O)[C@H](Cc2cccnc2)NC(=O)[C@H](NC(=O)[C@H](N)C(c2ccccc2)c2ccccc2)CSSC[C@@H](C(=O)N[C@@H](Cc2ccc3ccccc3c2)C(N)=O)NC1=O [Analog No. 18, H2-D-Dip-D-Cys-Pal-D-Trp-Lys-Val-Cys-β-Nal-NH2] (H-[dDip][dC][3Pal][dW]KVC[2Nal]-NH2; disulfide 2-7)"
4,3.8 nM,"CCCC[C@@H]1NC(=O)[C@H](CCCCN)NC(=O)[C@@H](Cc2c[nH]c3ccccc23)NC(=O)[C@H](Cc2cccnc2)NC(=O)[C@H](NC(=O)[C@@H](N)Cc2ccc3ccccc3c2)CSSC[C@@H](C(=O)N[C@@H](Cc2ccc3ccccc3c2)C(N)=O)NC1=O [Analog No. 31, H2-β-Nal-D-Cys-Pal-D-Trp-Lys-Nle-Cys-β-Nal-NH2] (H-[2Nal][dC][3Pal][dW]K[Nle]C[2Nal]-NH2; disulfide 2-7)"
5,1030 nM,"CC[C@H](C)[C@@H]1NC(=O)[C@H](CCCCN)NC(=O)[C@@H](Cc2c[nH]c3ccccc23)NC(=O)[C@H](Cc2ccc(O)cc2)NC(=O)[C@H](NC(=O)[C@@H](N)Cc2ccc(-c3ccccc3)cc2)CSSC[C@@H](C(=O)N[C@@H](Cc2ccc(-c3ccccc3)cc2)C(N)=O)NC1=O [Analog No. 36, H2-Bip-D-Cys-Tyr-D-Trp-Lys-Ile-Cys-Bip-NH2] (H-[Bip][dC]Y[dW]KIC[Bip]-NH2; disulfide 2-7)"
6,900 nM,"C[C@@H](O)[C@H](NC(=O)[C@@H]1CSSC[C@@H](NC(=O)[C@@H](N)Cc2ccccc2)C(=O)N[C@@H](Cc2cccnc2)C(=O)N[C@H](Cc2c[nH]c3ccccc23)C(=O)N[C@@H](CCCCN)C(=O)N[C@@H]([C@@H](C)O)C(=O)N1)C(N)=O [Analog No. 6, H2-Phe-D-Cys-Pal-D-Trp-Lys-Thr-Cys-Thr-NH2] (H-F[dC][3Pal][dW]KTCT-NH2; disulfide 2-7)"
7,910 nM,"CC(C)[C@H](NC(=O)[C@H](CCCCN)NC(=O)[C@@H](Cc1c[nH]c2ccccc12)NC(=O)[C@H](Cc1ccc(O)cc1)NC(=O)[C@@H](Cc1ccc(Cl)cc1)NC(=O)[C@@H](N)Cc1ccc2ccccc2c1)C(=O)N[C@@H](Cc1ccccc1)C(=O)N[C@@H](Cc1ccc2ccccc2c1)C(N)=O [Analog No. 23, H2-β-Nal-D-Cpa-Tyr-D-Trp-Lys-Val-Phe-β-Nal-NH2] (H-[2Nal][dPhe(4-Cl)]Y[dW]KVF[2Nal]-NH2)"
8,1.1 nM,"CC(C)(C)[C@@H]1NC(=O)[C@H](CCCCN)NC(=O)[C@@H](Cc2c[nH]c3ccccc23)NC(=O)[C@H](Cc2cccnc2)NC(=O)[C@H](NC(=O)[C@@H](N)Cc2ccc(F)cc2)CSSC[C@@H](C(=O)N[C@@H](Cc2ccc3ccccc3c2)C(N)=O)NC1=O [Analog No. 50, H2-p-F-Phe-D-Cys-Pal-D-Trp-Lys-Tle-Cys-β-Nal-NH2] (H-[Phe(4-F)][dC][3Pal][dW]K[Tle]C[2Nal]-NH2; disulfide 2-7)"
9,110 nM,"CC(C)[C@@H]1NC(=O)[C@H](CCCCN)NC(=O)[C@@H](Cc2c[nH]c3ccccc23)NC(=O)[C@H](Cc2cccnc2)NC(=O)[C@H](NC(=O)[C@@H](N)C(c2ccccc2)c2ccccc2)CSSC[C@@H](C(=O)N[C@@H](Cc2ccc3ccccc3c2)C(N)=O)NC1=O [Analog No. 13, H2-Dip-D-Cys-Pal-D-Trp-Lys-Val-Cys-β-Nal-NH2] (H-[Dip][dC][3Pal][dW]KVC[2Nal]-NH2; disulfide 2-7)"
